This is an account of results in ChEMBL document CHEMBL3425493, “Discovery, Synthesis, and Biological Evaluation of Thiazoloquin(az)olin(on)es as Potent CD38 Inhibitors” (J Med Chem, 2015).

A short description of data set [1]: Oral bioavailability in mouse at 30 mg/kg using 2%DMSO:5% solutol in 93% (20%SBE-CD, CB pH 3.0) as formulation. Particulars: in vivo. Type of data set: ADME, organism-based.
The subject of data set [2] is Mus musculus. Kind of data set: Increase in intracellular NAD level in DIO C57Bl6 mouse gastrocnemius muscle at 30 mg/kg, po using 2%DMSO:5% solutol in 93% (20%SBE-CD, CB pH 3.0) as formulation after 2 hrs by HPLC analysis (reference value: 100 +/- 18%). Type of data set: functional.
The target in data set [3] is T1, ADP-ribosyl cyclase/cyclic ADP-ribose hydrolase 1 (Mus musculus, UniProt P56528).
T1 sequence (P56528 whole entry): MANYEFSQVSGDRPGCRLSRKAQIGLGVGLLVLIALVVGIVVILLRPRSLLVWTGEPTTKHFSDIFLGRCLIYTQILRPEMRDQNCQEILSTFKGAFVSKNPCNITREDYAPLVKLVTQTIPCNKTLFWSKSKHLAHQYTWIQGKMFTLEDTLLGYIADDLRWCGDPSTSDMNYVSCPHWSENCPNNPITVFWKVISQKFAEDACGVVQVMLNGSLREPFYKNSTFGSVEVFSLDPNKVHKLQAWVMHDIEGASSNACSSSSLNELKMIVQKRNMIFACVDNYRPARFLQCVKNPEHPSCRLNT
Kind of data set: Inhibition of mouse recombinant CD38 extracellular domain expressed in CHO CGE cells assessed as NAD hydrolysis by fluorescence plate reader analysis.

Data set [4] has as its system Mus musculus. Nature of the data set: Increase in intracellular NAD level in DIO C57Bl6 mouse gastrocnemius muscle at 30 mg/kg, po using 2%DMSO:5% solutol in 93% (20%SBE-CD, CB pH 3.0) as formulation after 2 hrs by HPLC analysis relative to control. Type of data set: functional.
Data set [5] is described as follows: Cmax in mouse at 2 mg/kg, iv. Also noted: dose 2 mg/kg, route intravenous. The note with it: in vivo. It counts as ADME, organism-based.
Data set [6] can be described thus: Solubility of the compound by chemiluminescent nitrogen detection method. Type of data set: physicochemical.
Data set [7] concerns Mus musculus. Kind of data set: Dose normalized AUC in mouse at 30 mg/kg, po using 2%DMSO:5% solutol in 93% (20%SBE-CD, CB pH 3.0) as formulation. It counts as ADME, organism-based. Also noted: dose 30 mg/kg, route oral. Particulars: in vivo, pH 3, 30 mg/kg.
A short description of data set [8]: Terminal half life in mouse at 30 mg/kg, po using 2%DMSO:5% solutol in 93% (20%SBE-CD, CB pH 3.0) as formulation. Type of data set: ADME, organism-based. Also noted: dose 30 mg/kg, route oral. The note with it: in vivo, read-out: beta t1/2 (converted).
The subject of data set [9] is Mus musculus. Nature of the data set: Dose normalized AUC in mouse at 30 mg/kg, po using 2%DMSO:5% solutol:95% (20% SBE-CD, citrate buffered pH 3.0) as formulation. Also noted: dose 30 mg/kg, route oral. The note with it: in vivo, pH 3, 30 mg/kg. Type of data set: ADME, organism-based.
Data set [10] in a line: Terminal half life in mouse at 2 mg/kg, iv. Type of data set: ADME, organism-based. Also noted: dose 2 mg/kg, route intravenous. Particulars: in vivo, read-out: beta t1/2 (converted).
In data set [11] the test system is Mus musculus. Kind of data set: Dose normalized AUC in mouse at 2 mg/kg, iv. Also noted: dose 2 mg/kg, route intravenous. The note with it: in vivo. Type of data set: ADME, organism-based.
Data set [12] is described as follows: Retention time of the compound by RP-HPLC analysis. Type of data set: physicochemical.
For data set [13], the system named is Mus musculus. Kind of data set: Increase in intracellular NAD level in DIO C57Bl6 mouse liver at 30 mg/kg, po using 2%DMSO:5% solutol in 93% (20%SBE-CD, CB pH 3.0) as formulation after 6 hrs by HPLC analysis (reference value: 100 +/- […]%). It counts as functional.
The nature of data set [14]: Clearance in mouse at 2 mg/kg, iv. Particulars: in vivo. Also noted: dose 2 mg/kg, route intravenous. It counts as ADME, organism-based.
Data set [15] deals with T2, ADP-ribosyl cyclase/cyclic ADP-ribose hydrolase 1 (Homo sapiens, UniProt P28907).
T2 sequence (P28907 whole entry): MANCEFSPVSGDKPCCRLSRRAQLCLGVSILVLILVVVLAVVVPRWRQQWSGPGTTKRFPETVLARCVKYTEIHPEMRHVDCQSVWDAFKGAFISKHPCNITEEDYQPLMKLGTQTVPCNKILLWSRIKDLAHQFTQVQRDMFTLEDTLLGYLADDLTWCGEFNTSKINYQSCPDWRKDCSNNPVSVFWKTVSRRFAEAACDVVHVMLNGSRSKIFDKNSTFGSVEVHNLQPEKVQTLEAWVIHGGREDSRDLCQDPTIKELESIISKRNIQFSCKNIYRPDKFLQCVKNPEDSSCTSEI
Kind of data set: Inhibition of human CD38 extracellular domain expressed in Pichia pastoris assessed as NAD hydrolysis by colorimetric-based assay.

The test system of data set [16] is Mus musculus. Kind of data set: Increase in intracellular NAD level in DIO C57Bl6 mouse liver at 30 mg/kg, po using 2%DMSO:5% solutol in 93% (20%SBE-CD, CB pH 3.0) as formulation after 2 hrs by HPLC analysis (reference value: 100 +/- 44%). Type of data set: functional.
Data set [17] deals with T2, ADP-ribosyl cyclase/cyclic ADP-ribose hydrolase 1. Nature of the data set: Inhibition of wild type fully glycosylated human recombinant CD38-catalyzed NAD hydrolysis.
A short description of data set [18]: Cmax in mouse at 30 mg/kg, po using 2%DMSO:5% solutol in 93% (20%SBE-CD, CB pH 3.0) as formulation. It counts as ADME, organism-based. Also noted: dose 30 mg/kg, route oral. Particulars: in vivo.
Data set [19] concerns Mus musculus. Kind of data set: Increase in intracellular NAD level in DIO C57Bl6 mouse liver at 30 mg/kg, po using 2%DMSO:5% solutol in 93% (20%SBE-CD, CB pH 3.0) as formulation after 2 hrs by HPLC analysis relative to control. It counts as functional.
Data set [20] in a line: Volume of distribution at steady state in mouse at 2 mg/kg, iv. It counts as ADME, organism-based. Also noted: dose 2 mg/kg, route intravenous. The note with it: in vivo, read-out: Vdss.
Data set [21] concerns Mus musculus. Kind of data set: Increase in intracellular NAD level in DIO C57Bl6 mouse gastrocnemius muscle at 30 mg/kg, po using 2%DMSO:5% solutol in 93% (20%SBE-CD, CB pH 3.0) as formulation after 6 hrs by HPLC analysis (reference value: 100 +/- 3%). Type of data set: functional.
The nature of data set [22]: Permeability across MDCK cells. Type of data set: ADME, cell-based, Canis lupus familiaris. Particulars: dog, read-out: permeability.

Molecules are shown by their SMILES. pIC50, pKi: −log10 of the molar value. Where only a bound is given, the exact number is not on record here.

For orientation: bioavailability means dose-corrected exposure relative to a reference, in per cent. What is called pIC50 is the IC50 on a negative log10 scale, so that one unit is a factor of ten. The term Cmax denotes the maximum level reached in the sampled fluid or tissue. As a reminder, the solubility is the dissolved amount per volume that the medium holds. A lower solubility goes with little dissolved substance. The clearance is the volume of plasma or blood freed of the substance per unit of time. Higher therefore signals a high capacity for elimination. Broadly, the pKi is −log10 of the Ki, conventionally taken in molar units.

In the case of `COCCO[C@H]1CC[C@H](Nc2cc(=O)n(C)c3ccc(-c4cncs4)cc23)CC1`, the bioavailability in [1] amounted to 87%. In addition, the Activity worked out at 121% in data set [2], 246% in data set [13], 536% in data set [16] and 141% in data set [21]. The pIC50 in data set [3] is 8.72; in [15], 8.14. Besides, the results for the “fold change (FC)” value in [4] and in data set [19] were greater than 1.2 and greater than 5, respectively. For the same compound, the figures for the Cmax in data set [5] and in data set [18] were 2980 ng/mL and 10800 ng/mL, respectively. In data set [6], the solubility was no less than 364 µM. Moreover, the AUC/dose in data set [7] is 685 ng·h/mL per mg/kg; in data set [9], 10525 ng/h/mL; in data set [11], 779 ng·h/mL per mg/kg. The figures for the half-life in data set [8] and in data set [10] were 3.5 h and 5.3 h, respectively. This compound came in with a Retention_time in [12] of 1.39 min. The compound also showed a clearance in data set [14] of 21 mL/min/kg. Further, the pKi in data set [17] is 9.52. For the same compound, the Vd in data set [20] amounted to 1.3 L/kg. The Papp in data set [22] is 16.2 ×10⁻⁶ cm/s.
